Earlier results on one compound are cited in patent US20240197753A1, “PHARMACEUTICAL COMPOSITION FOR IMPROVING CARDIAC FUNCTION” (OSAKA UNIVERSITY, priority 2021, published 2024).

As to `O=C(O)COc1cccc2c1CCC=C2CCO/N=C(\c1ccccc1)c1cccnc1` [ONO-1301, ({5-[2-({[(1E)-phenyl(pyridin-3-yl)methylene]amino}oxy)ethyl]-7,8-dihydronaphthalen-1-yl}oxy)acetic acid], under “oral dosing phase I study”, the “no-observed-adverse-effect level (blood ONO-1301 concentration)” value was 23.69 ng/mL and the “no-observed-effect level (blood ONO-1301 concentration)” value was 15.61 ng/mL. Also, for the setting “oral, Phase I clinical trials”, the “Safety margin (efficacy: platelet aggregation inhibition; side effects: epigastric pain, fever, cold sweat, diarrhea, etc.)” value is on record as “narrow”.
